Test results published in ChEMBL document CHEMBL1201862, “PubChem BioAssay data set” (2004).
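Exposure lasted 48 hours, with cells grown in 96-well plates and compounds tested at five concentrations. Abbreviation: GI50, concentration required for 50% inhibition of growth.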 The source made the active and inactive calls. No stated cut-off is given here; in the data, active = GI50 up to about 1.1 µM and inactive = higher.

Key:
Assay in all cases: inhibition of tumour cell growth, NCI panel, 48 h
NCI-H460 = system: NCI-H460
CAKI-1 = system: CAKI-1
UACC-62 = system: UACC-62
NCI-H23 = system: NCI-H23
SK-MEL-5 = system: SK-MEL-5
LOX IMVI = system: LOX IMVI
COLO 205 = system: COLO 205
SF-268 = system: SF-268
HCC 2998 = system: HCC 2998
A549 = system: A549
Hs-578T = system: Hs-578T
NCI/ADR-RES = system: NCI/ADR-RES
SK-OV-3 = system: SK-OV-3
HT-29 = system: HT-29
EKVX = system: EKVX
SK-MEL-2 = system: SK-MEL-2
HL-60 = system: HL-60
MOLT-4 = system: MOLT-4
OVCAR-3 = system: OVCAR-3
RXF 393 = system: RXF 393
OVCAR-8 = system: OVCAR-8
K562 = system: K562
UO-31 = system: UO-31
DU-145 = system: DU-145
U-251 = system: U-251
SF-295 = system: SF-295
BT-549 = system: BT-549
MCF7 = system: MCF7
UACC-257 = system: UACC-257
SW-620 = system: SW-620
SF-539 = system: SF-539
MDA-MB-435 = system: MDA-MB-435
OVCAR-5 = system: OVCAR-5
T47D = system: T47D
HCT-15 = system: HCT-15
SK-MEL-28 = system: SK-MEL-28
TK-10 = system: TK-10
HOP-92 = system: HOP-92
786-0 = system: 786-0
SN12C = system: SN12C
MDA-MB-231 = system: MDA-MB-231
M14 = system: M14
IGROV-1 = system: IGROV-1
HCT-116 = system: HCT-116
NCI-H522 = system: NCI-H522
ACHN = system: ACHN
RPMI-8226 = system: RPMI-8226
OVCAR-4 = system: OVCAR-4
MDA-N = system: MDA-N
NCI-H226 = system: NCI-H226
KM12 = system: KM12
PC-3 = system: PC-3
SR = system: SR
CCRF-CEM = system: CCRF-CEM
SNB-75 = system: SNB-75
SNB-19 = system: SNB-19
A498 = system: A498
HOP-62 = system: HOP-62
Malme-3M = system: Malme-3M

Compound: COC[C@@H](C[C@H]1O[C@@](O)([C@H](O)[C@@H]2C[C@H](OC)[C@@H](O)CC/C=C(C)/C=C/[C@@H](O[C@@H]3O[C@@H](C)[C@H](OC)[C@@H](O)[C@@H]3O)[C@H](C)/C=C(C)/C=C(C)/C=C(\C)C(=O)O2)[C@H](C)[C@@H](O)[C@H]1C)O[C@H]1C[C@](C)(O)[C@@H](O[C@H]2C[C@@H](OC)[C@H](O)[C@@H](C)O2)C(C)O1 (some centres undefined)
- GI50 (NCI-H460): > 61 µM (inactive)
- GI50 (CAKI-1): > 100 µM (inactive)
- GI50 (UACC-62): > 100 µM (inactive)
- GI50 (NCI-H23): 0.0532 µM (active)
- GI50 (SK-MEL-5): 0.182 µM (active)
- GI50 (LOX IMVI): 46.5 µM (inactive)
- GI50 (COLO 205): 0.221 µM (active)
- GI50 (SF-268): > 40.8 µM (inactive)
- GI50 (HCC 2998): > 80.2 µM (inactive)
- GI50 (A549): 1.32 µM (inactive)
- GI50 (Hs-578T): 69 µM (inactive)
- GI50 (NCI/ADR-RES): > 100 µM (inactive)
- GI50 (SK-OV-3): > 100 µM (inactive)
- GI50 (HT-29): > 100 µM (inactive)
- GI50 (EKVX): 0.119 µM (active)
- GI50 (SK-MEL-2): > 55 µM (inactive)
- GI50 (HL-60): 0.869 µM (active)
- GI50 (MOLT-4): 2.44 µM (inactive)
- GI50 (OVCAR-3): 63.1 µM (inactive)
- GI50 (RXF 393): > 100 µM (inactive)
- GI50 (OVCAR-8): 1.44 µM (inactive)
- GI50 (K562): 0.149 µM (active)
- GI50 (UO-31): > 100 µM (inactive)
- GI50 (DU-145): > 61.8 µM (inactive)
- GI50 (U-251): 0.0628 µM (active)
- GI50 (SF-295): 0.857 µM (active)
- GI50 (BT-549): > 92.3 µM (inactive)
- GI50 (MCF7): 0.0785 µM (active)
- GI50 (UACC-257): 0.0374 µM (active)
- GI50 (SW-620): > 85.7 µM (inactive)
- GI50 (SF-539): > 100 µM (inactive)
- GI50 (MDA-MB-435): > 89.1 µM (inactive)
- GI50 (OVCAR-5): > 100 µM (inactive)
- GI50 (T47D): 0.188 µM (active)
- GI50 (HCT-15): > 100 µM
- GI50 (SK-MEL-28): > 67.8 µM (inactive)
- GI50 (TK-10): > 100 µM (inactive)
- GI50 (HOP-92): > 90.2 µM (inactive)
- GI50 (786-0): > 100 µM (inactive)
- GI50 (SN12C): > 100 µM (inactive)
- GI50 (MDA-MB-231): > 100 µM (inactive)
- GI50 (M14): > 100 µM (inactive)
- GI50 (IGROV-1): > 100 µM (inactive)
- GI50 (HCT-116): > 100 µM (inactive)
- GI50 (NCI-H522): 0.0685 µM (active)
- GI50 (ACHN): 96.4 µM (inactive)
- GI50 (RPMI-8226): 86.5 µM (inactive)
- GI50 (OVCAR-4): 41.3 µM (inactive)
- GI50 (MDA-N): > 100 µM (inactive)
- GI50 (NCI-H226): 0.91 µM (active)
- GI50 (KM12): > 66.2 µM (inactive)
- GI50 (PC-3): 0.0447 µM (active)

Compound: CC1C2CC(C(S(=O)(=O)O)C2=O)C1(C)C (centres undefined)
- GI50 (NCI-H460): > 100 µM (inactive)
- GI50 (SR): > 100 µM (inactive)
- GI50 (UACC-62): > 100 µM (inactive)
- GI50 (NCI-H23): > 100 µM (inactive)
- GI50 (COLO 205): > 100 µM (inactive)
- GI50 (SF-268): > 100 µM (inactive)
- GI50 (HCC 2998): > 100 µM (inactive)
- GI50 (CCRF-CEM): > 100 µM (inactive)
- GI50 (Hs-578T): > 100 µM (inactive)
- GI50 (SNB-75): > 100 µM (inactive)
- GI50 (SK-OV-3): > 100 µM (inactive)
- GI50 (HT-29): > 100 µM (inactive)
- GI50 (EKVX): > 100 µM (inactive)
- GI50 (HL-60): > 100 µM (inactive)
- GI50 (MOLT-4): > 100 µM (inactive)
- GI50 (OVCAR-3): > 100 µM (inactive)
- GI50 (RXF 393): > 100 µM (inactive)
- GI50 (OVCAR-8): > 100 µM (inactive)
- GI50 (K562): > 100 µM (inactive)
- GI50 (UO-31): > 100 µM (inactive)
- GI50 (DU-145): > 100 µM (inactive)
- GI50 (U-251): > 100 µM (inactive)
- GI50 (SF-295): > 100 µM (inactive)
- GI50 (SNB-19): > 100 µM (inactive)
- GI50 (BT-549): > 100 µM (inactive)
- GI50 (MCF7): > 100 µM (inactive)
- GI50 (UACC-257): > 100 µM (inactive)
- GI50 (SW-620): > 100 µM (inactive)
- GI50 (SF-539): > 100 µM (inactive)
- GI50 (MDA-MB-435): > 100 µM (inactive)
- GI50 (OVCAR-5): > 100 µM (inactive)
- GI50 (T47D): > 100 µM (inactive)
- GI50 (SK-MEL-28): > 100 µM (inactive)
- GI50 (A498): > 100 µM (inactive)
- GI50 (TK-10): > 100 µM (inactive)
- GI50 (HOP-92): > 100 µM (inactive)
- GI50 (786-0): > 100 µM (inactive)
- GI50 (HOP-62): > 100 µM (inactive)
- GI50 (SN12C): > 100 µM (inactive)
- GI50 (MDA-MB-231): > 100 µM (inactive)
- GI50 (M14): > 100 µM (inactive)
- GI50 (IGROV-1): > 100 µM (inactive)
- GI50 (HCT-116): > 100 µM (inactive)
- GI50 (NCI-H522): > 100 µM (inactive)
- GI50 (ACHN): > 100 µM (inactive)
- GI50 (OVCAR-4): > 100 µM (inactive)
- GI50 (MDA-N): > 100 µM (inactive)
- GI50 (NCI-H226): > 100 µM (inactive)
- GI50 (KM12): > 100 µM (inactive)
- GI50 (PC-3): > 100 µM (inactive)
- GI50 (Malme-3M): > 100 µM (inactive)

Compound: C=CCOCn1ccc(=O)[nH]c1=O
- GI50 (NCI-H460): > 100 µM (inactive)
- GI50 (SR): > 100 µM (inactive)
- GI50 (CAKI-1): > 100 µM (inactive)
- GI50 (UACC-62): > 100 µM (inactive)
- GI50 (NCI-H23): > 100 µM (inactive)
- GI50 (SK-MEL-5): > 100 µM (inactive)
- GI50 (LOX IMVI): > 100 µM (inactive)
- GI50 (COLO 205): > 100 µM (inactive)
- GI50 (SF-268): > 100 µM (inactive)
- GI50 (HCC 2998): > 100 µM (inactive)
- GI50 (CCRF-CEM): > 100 µM (inactive)
- GI50 (A549): > 100 µM (inactive)
- GI50 (Hs-578T): > 100 µM (inactive)
- GI50 (SNB-75): > 100 µM (inactive)
- GI50 (SK-OV-3): > 100 µM (inactive)
- GI50 (HT-29): > 100 µM (inactive)
- GI50 (EKVX): > 100 µM (inactive)
- GI50 (HL-60): > 100 µM (inactive)
- GI50 (MOLT-4): > 100 µM (inactive)
- GI50 (OVCAR-8): > 100 µM (inactive)
- GI50 (K562): > 100 µM (inactive)
- GI50 (UO-31): > 100 µM (inactive)
- GI50 (DU-145): > 100 µM (inactive)
- GI50 (SF-295): > 100 µM (inactive)
- GI50 (SNB-19): > 100 µM (inactive)
- GI50 (BT-549): > 100 µM (inactive)
- GI50 (MCF7): > 100 µM (inactive)
- GI50 (UACC-257): > 100 µM (inactive)
- GI50 (SW-620): > 100 µM (inactive)
- GI50 (SF-539): > 100 µM (inactive)
- GI50 (MDA-MB-435): > 100 µM (inactive)
- GI50 (T47D): > 100 µM (inactive)
- GI50 (HCT-15): > 100 µM
- GI50 (SK-MEL-28): > 100 µM (inactive)
- GI50 (A498): > 100 µM (inactive)
- GI50 (TK-10): > 100 µM (inactive)
- GI50 (786-0): > 100 µM (inactive)
- GI50 (HOP-62): > 100 µM (inactive)
- GI50 (SN12C): > 100 µM (inactive)
- GI50 (MDA-MB-231): > 100 µM (inactive)
- GI50 (M14): > 100 µM (inactive)
- GI50 (IGROV-1): > 100 µM (inactive)
- GI50 (HCT-116): > 100 µM (inactive)
- GI50 (NCI-H522): > 100 µM (inactive)
- GI50 (ACHN): > 100 µM (inactive)
- GI50 (RPMI-8226): > 100 µM (inactive)
- GI50 (MDA-N): > 100 µM (inactive)
- GI50 (NCI-H226): > 100 µM (inactive)
- GI50 (KM12): > 100 µM (inactive)
- GI50 (PC-3): > 100 µM (inactive)
- GI50 (Malme-3M): 94.4 µM (inactive)
